A short description of data set [1]: Stability of FRET reporter substrates to uncatalyzed hydrolysis. The format is physicochemical. From the text:
(§1) A convenient in vitro fluorometric esterase assay utilizing the BioTek Instruments Synergy™ HT Multi-Mode Microplate 96-well reader was developed that measured nanomolar concentrations of fluorescent reaction product.

Data set [2] concerns the target T1, hDAGLα (Homo sapiens, UniProt Q9Y4D2).
T1 sequence (Q9Y4D2 1-1042): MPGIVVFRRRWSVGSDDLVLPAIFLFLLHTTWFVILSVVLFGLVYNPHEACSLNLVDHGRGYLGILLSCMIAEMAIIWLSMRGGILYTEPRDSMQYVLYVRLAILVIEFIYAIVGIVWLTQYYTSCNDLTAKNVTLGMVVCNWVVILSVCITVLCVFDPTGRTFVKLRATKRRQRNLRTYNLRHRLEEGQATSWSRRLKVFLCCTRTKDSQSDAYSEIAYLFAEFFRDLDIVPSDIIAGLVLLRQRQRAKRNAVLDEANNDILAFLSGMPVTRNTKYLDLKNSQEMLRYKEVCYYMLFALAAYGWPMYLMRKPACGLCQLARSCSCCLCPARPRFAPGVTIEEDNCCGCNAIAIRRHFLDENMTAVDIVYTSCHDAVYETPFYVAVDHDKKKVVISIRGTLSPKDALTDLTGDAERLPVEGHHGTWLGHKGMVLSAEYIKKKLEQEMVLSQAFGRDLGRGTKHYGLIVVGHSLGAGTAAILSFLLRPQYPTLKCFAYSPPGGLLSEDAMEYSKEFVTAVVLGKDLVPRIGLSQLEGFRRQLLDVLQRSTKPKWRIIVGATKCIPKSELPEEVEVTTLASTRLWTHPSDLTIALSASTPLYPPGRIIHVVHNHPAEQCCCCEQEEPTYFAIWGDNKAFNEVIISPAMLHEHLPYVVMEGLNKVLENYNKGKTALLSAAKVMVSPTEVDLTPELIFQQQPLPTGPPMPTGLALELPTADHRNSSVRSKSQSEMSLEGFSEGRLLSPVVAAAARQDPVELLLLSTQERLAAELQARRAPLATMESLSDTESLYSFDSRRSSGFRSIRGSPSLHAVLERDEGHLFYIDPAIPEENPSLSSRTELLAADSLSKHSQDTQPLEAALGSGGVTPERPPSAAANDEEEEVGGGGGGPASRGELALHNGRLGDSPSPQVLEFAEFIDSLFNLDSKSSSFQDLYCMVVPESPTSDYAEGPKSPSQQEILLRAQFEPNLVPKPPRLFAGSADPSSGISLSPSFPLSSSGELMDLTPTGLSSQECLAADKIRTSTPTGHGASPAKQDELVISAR
Briefly: Evaluation of FRET reporter substrates for enzymatic hydrolysis. The format is biochemical. More on the design: V5; His; expressed in transfected cells; host or cells: HEK293T, transient; crude cell lysate or membrane preparation.
Source text: Reporter compounds as substrates for hDAGLα activity with HEK293T cell lysates in the presence of 10% DMSO are shown. A) Pyrenyl analogs (17)-(19), (21), and (22) (EX 320 nm, EM 400 nm). B) NBD analog (20) (EX 485 nm, EM 535 nm).
as §1

The test system of data set [3] is Lipoprotein Lipase (Bacterial). The format is biochemical, Pseudomonas sp.
For data set [4], the target named is T1, hDAGLα.
Data set [5] concerns DAGL. The settings on record: cited from earlier work.
Data set [6] deals with cannabinoid receptors. Particulars: cited from earlier work.
Data set [7] concerns the target T2, MAGL (Homo sapiens, UniProt Q99685).
T2 sequence (Q99685 1-303): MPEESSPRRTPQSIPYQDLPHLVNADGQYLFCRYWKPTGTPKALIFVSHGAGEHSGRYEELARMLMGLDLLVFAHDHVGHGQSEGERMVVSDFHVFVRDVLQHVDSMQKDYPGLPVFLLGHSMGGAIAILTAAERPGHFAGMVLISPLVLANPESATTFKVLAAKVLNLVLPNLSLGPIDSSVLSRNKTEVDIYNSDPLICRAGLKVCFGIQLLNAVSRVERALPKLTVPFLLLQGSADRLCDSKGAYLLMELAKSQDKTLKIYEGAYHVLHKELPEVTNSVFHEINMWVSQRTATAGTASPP
The settings on record: cited from earlier work.

Data set [8] concerns FAAH. Particulars: cited from earlier work.
In data set [9] the target is T3, Pancreatic Lipase (Porcine) (Sus scrofa, UniProt P00591).
T3 construct: purchased Sigma L3126
T3 sequence (P00591 1-450): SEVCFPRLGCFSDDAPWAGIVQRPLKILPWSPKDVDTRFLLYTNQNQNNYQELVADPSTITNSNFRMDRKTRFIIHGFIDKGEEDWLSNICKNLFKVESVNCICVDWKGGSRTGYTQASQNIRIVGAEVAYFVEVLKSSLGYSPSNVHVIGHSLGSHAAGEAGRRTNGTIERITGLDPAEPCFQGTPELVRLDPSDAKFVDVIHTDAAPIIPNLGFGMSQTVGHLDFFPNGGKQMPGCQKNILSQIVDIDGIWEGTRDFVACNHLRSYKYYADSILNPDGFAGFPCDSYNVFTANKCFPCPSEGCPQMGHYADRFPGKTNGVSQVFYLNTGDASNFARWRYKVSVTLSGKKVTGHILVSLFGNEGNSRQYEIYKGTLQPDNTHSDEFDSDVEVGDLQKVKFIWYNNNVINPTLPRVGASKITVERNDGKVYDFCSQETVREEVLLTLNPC
The format is biochemical. The settings on record: read-out: Pancreatic Lipase (Porcine) inhibition at 10 μM (%).

Data set [10] concerns the target T1, hDAGLα. Briefly: biochemical.
The target of data set [11] is T4, mDAGLα (Mus musculus, UniProt Q6WQJ1).
T4 sequence (Q6WQJ1 1-1044): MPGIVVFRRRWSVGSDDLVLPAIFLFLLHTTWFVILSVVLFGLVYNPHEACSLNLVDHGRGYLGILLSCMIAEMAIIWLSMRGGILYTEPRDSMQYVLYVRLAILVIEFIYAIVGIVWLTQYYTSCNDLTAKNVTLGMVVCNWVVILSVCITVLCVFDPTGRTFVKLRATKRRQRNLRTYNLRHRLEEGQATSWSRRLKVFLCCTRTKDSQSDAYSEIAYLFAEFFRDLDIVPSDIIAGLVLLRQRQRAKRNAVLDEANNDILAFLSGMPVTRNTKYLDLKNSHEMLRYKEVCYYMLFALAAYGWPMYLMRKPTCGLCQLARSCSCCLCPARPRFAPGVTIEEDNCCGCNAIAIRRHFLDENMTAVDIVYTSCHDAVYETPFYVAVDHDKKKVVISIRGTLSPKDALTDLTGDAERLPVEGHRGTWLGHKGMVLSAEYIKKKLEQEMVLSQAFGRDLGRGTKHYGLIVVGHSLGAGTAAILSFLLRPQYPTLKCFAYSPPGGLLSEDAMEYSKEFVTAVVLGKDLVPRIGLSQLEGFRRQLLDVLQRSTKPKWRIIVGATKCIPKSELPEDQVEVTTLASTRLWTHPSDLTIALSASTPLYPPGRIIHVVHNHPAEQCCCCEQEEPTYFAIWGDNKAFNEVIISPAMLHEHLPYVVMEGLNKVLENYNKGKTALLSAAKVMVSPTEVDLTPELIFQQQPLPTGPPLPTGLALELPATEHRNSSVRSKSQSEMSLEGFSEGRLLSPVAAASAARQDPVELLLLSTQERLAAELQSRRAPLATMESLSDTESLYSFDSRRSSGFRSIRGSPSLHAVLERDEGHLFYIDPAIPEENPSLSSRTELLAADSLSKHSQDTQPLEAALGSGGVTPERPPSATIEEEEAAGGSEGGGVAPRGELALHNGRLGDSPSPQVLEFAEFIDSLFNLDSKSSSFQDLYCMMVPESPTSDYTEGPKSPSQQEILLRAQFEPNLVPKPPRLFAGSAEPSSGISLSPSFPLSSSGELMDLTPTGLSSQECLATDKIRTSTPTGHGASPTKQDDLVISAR
Briefly: Radio-TLC assay with [14C]SAG substrate, mDAGLα. The settings on record: read-out: mDAGLα inhibition at 10000 nM (%).

For data set [12], the target named is T2, MAGL. Description: hMAGL coumarin substrate fluorescence assay. The class given is biochemical. The arrangement: The N-terminal his-tagged full length human monoacylglycerol lipase used; His (N); made in house; host or cells: E. coli. Particulars: read-out: hMAGL inhibition at 10 μM (%).

By inhibition is commonly meant the change of the read-out against control, counted positive when it falls.

“Also recorded” adds a separate entry of the source. Where two headings read alike, the source gives them in different places.

In the case of `COC[C@@H](COC(=O)CCCCCNc1ccc([N+](=O)[O-])cc1[N+](=O)[O-])OC(=O)CCCc1ccc2ccc3cccc4ccc1c2c34` [Compound 17, 1-((2,4-Dinitrophenyl)amino)hexanoyl-2-pyrenebutanoyl-3-methyl-sn-glycerol], the “stability to uncatalyzed hydrolysis at neutral pH” value in [1] is recorded as “stable”. Further, the “quality as substrate for enzymatic hydrolysis” value in data set [2] is recorded as “best enzyme substrates”.

`COC[C@@H](COC(=O)CCCc1ccc2ccc3cccc4ccc1c2c34)OC(=O)CCCCCNc1ccc([N+](=O)[O-])cc1[N+](=O)[O-]` [Compound 18, 1-Pyrenebutanoyl-2-((2,4-dinitrophenyl)amino)hexanoyl-3-methyl-sn-glycerol]: the “stability to uncatalyzed hydrolysis at neutral pH” value in data set [1] is given as “stable”. In data set [2], the “quality as substrate for enzymatic hydrolysis” value is reported as “best enzyme substrates”.

In the case of `O=S(=O)(F)Cc1ccccc1` [PMSF, phenylmethylsulfonylfluoride], the “Lipoprotein Lipase (Bacterial) inhibition at 10 μM (%)” value in [3] was less than 0%. For the same compound, in data set [4], the “inhibition of hDAGLα in radio-TLC assays” value was “poor inhibitors”. The “effect on DAGL activity reported in the literature” value in data set [5] is “poor inhibitors; also recorded: not affected”. Moreover, in data set [6] (literature), the “binding to the cannabinoid receptors, previous reports” value was “did not bind”. For the same compound, the “inhibition of MAGL activity reported in the literature” value in data set [7] is recorded as “poor inhibitors”. Besides, the “inhibition of FAAH activity reported in the literature” value in data set [8] is reported as “poor inhibitors”.

Regarding `NC(=O)c1cccc(-c2cccc(OC(=O)NC3CCCCC3)c2)c1` [URB597], in [3], the “Lipoprotein Lipase (Bacterial) inhibition at 10 μM (%)” value came to 21%. Further, the inhibition at 10 µM in data set [9] was 68%; in data set [10] (read-out: hDAGLα inhibition at 10 μM detergent free (%), FRET), 22%; in [10] (read-out: hDAGLα inhibition at 10 μM detergent free (%), FRET, marker °), 7%; in data set [11] it was less than 0%; in data set [12] it was 18%. For the same compound, the “binding to the cannabinoid receptors, previous reports” value in [6] is on record as “did not bind”. Further, the “inhibition of MAGL activity reported in the literature” value in data set [7] is recorded as “poor inhibitors”.

Source of the values: patent publication US20150099800A1, “NOVEL LIPASE INHIBITORS, REPORTER SUBSTRATES AND USES THEREOF” (Northeastern University, priority 2012, published 2015).
